What was measured:
human LINE-1 = test: Human LINE-1 (L1) retrotransposition dual-luciferase reporter assay in HeLa cells; assay type: cell-based; details: Homo sapiens, HeLa, 72 h, read-out: Human LINE-1 IC50 (Human L1 activity inhibition)
In short: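 Compound dilution series (final DMSO 0.2%) added right after transfecting HeLa cells with the pYX017 L1 dual-luciferase reporter; 72 h culture at 37 °C, 5% CO2, triplicates. IC50 fitted by non-linear logistic regression to firefly-to-Renilla luminescence ratio (×10,000).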

cancer cell lines = test: Cancer cell proliferation activity of representative nucleosides, CellTiterGlo 72 h (Example 7, Tables 8 and 9); assay type: cell-based; details: 72 h
In short: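 Percent viability was set against 0.1% DMSO (100%) and 10 μM staurosporine (0%), with signal from CellTiterGlo luminescence. Dose-response treatment began one day after seeding and lasted 72 h at 37° C under 5% or 10% CO2, with 0.1% final DMSO.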

IC50 (human LINE-1): 0.043 µM
IC50 (cancer cell lines; 72 h, 5637, bladder): > 50 µM
IC50 (cancer cell lines; CLS439, bladder): > 50 µM
IC50 (cancer cell lines; HS729, muscle): > 50 µM
IC50 (cancer cell lines; J82, bladder): > 50 µM
IC50 (cancer cell lines; JAR, placenta): > 50 µM
IC50 (cancer cell lines; MT3, breast): 3.29 µM
IC50 (cancer cell lines; PC3, prostate): > 50 µM
IC50 (cancer cell lines; RD, muscle): > 50 µM
IC50 (cancer cell lines; T24, bladder): 3.46 µM
IC50 (cancer cell lines; Homo sapiens, 22Rv1, 72 h, 22RV1, prostate): > 50 µM
IC50 (cancer cell lines; Homo sapiens, 786-0, 72 h, 786O, kidney): > 50 µM
IC50 (cancer cell lines; Homo sapiens, A204, 72 h, A204, muscle): 0.27 µM
IC50 (cancer cell lines; Homo sapiens, A549, 72 h, A549, lung): 5.54 µM
IC50 (cancer cell lines; Homo sapiens, A673, 72 h, A673, bone): > 50 µM
IC50 (cancer cell lines; Homo sapiens, A2780, 72 h, A2780, ovary): > 50 µM
IC50 (cancer cell lines; Homo sapiens, A-375, 72 h, A375, skin): > 50 µM
IC50 (cancer cell lines; Homo sapiens, A-431, 72 h, A431, skin): > 50 µM
IC50 (cancer cell lines; Homo sapiens, ACHN, kidney): 2.74 µM
IC50 (cancer cell lines; Homo sapiens, ASPC1, 72 h, ASPC1, pancreas): > 50 µM
IC50 (cancer cell lines; Homo sapiens, BT-20, 72 h, BT20, breast): > 50 µM
IC50 (cancer cell lines; Homo sapiens, BXPC-3, 72 h, BXPC3, pancreas): > 50 µM
IC50 (cancer cell lines; Homo sapiens, C-33-A, C33A, endometrial): 6.53 µM
IC50 (cancer cell lines; Homo sapiens, CAKI-1, 72 h, CAKI1, kidney): 1.49 µM
IC50 (cancer cell lines; Homo sapiens, COLO 205, 72 h, COLO205, colon): 3.44 µM
IC50 (cancer cell lines; Homo sapiens, COLO-678, 72 h, COLO678, colon): > 50 µM
IC50 (cancer cell lines; Homo sapiens, Ca-Ski, CASKI, endometrial): > 50 µM
IC50 (cancer cell lines; Homo sapiens, Caco-2, 72 h, CACO2, colon): > 50 µM
IC50 (cancer cell lines; Homo sapiens, Calu-6, 72 h, CALU6, lung): > 50 µM
IC50 (cancer cell lines; Homo sapiens, DLD-1, 72 h, DLD1, colon): > 50 µM
IC50 (cancer cell lines; Homo sapiens, DU-145, 72 h, DU145, prostate): > 50 µM
IC50 (cancer cell lines; Homo sapiens, EFO-21, 72 h, EFO21, ovary): > 50 µM
IC50 (cancer cell lines; Homo sapiens, EJ-28, 72 h, EJ28, bladder): > 50 µM
IC50 (cancer cell lines; Homo sapiens, Granta-519, 72 h, GRANTA-519, hematological): 1.61 µM
IC50 (cancer cell lines; Homo sapiens, HCT-15, 72 h, HCT15, colon): 9.11 µM
IC50 (cancer cell lines; Homo sapiens, HCT-116, 72 h, HCT116, colon): 3.01 µM
IC50 (cancer cell lines; Homo sapiens, HEK293, 72 h, HEK293, kidney): > 50 µM
IC50 (cancer cell lines; Homo sapiens, HL-60, 72 h, HL-60, hematological): > 50 µM
IC50 (cancer cell lines; Homo sapiens, HT-29, 72 h, HT29, colon): > 50 µM
IC50 (cancer cell lines; Homo sapiens, HT-1080, 72 h, HT1080, connective tissue): > 50 µM
IC50 (cancer cell lines; Homo sapiens, HeLa, endometrial): > 50 µM
IC50 (cancer cell lines; Homo sapiens, HepG2, 72 h, HEPG2, liver): > 50 µM
IC50 (cancer cell lines; Homo sapiens, Hs-578T, HS578T, breast): > 50 µM
IC50 (cancer cell lines; Homo sapiens, IGROV-1, 72 h, IGROV1, ovary): > 50 µM
IC50 (cancer cell lines; Homo sapiens, IMR-90, 72 h, IMR90, lung): > 50 µM
IC50 (cancer cell lines; Homo sapiens, JEG-3, 72 h, JEG3, placenta): > 50 µM
IC50 (cancer cell lines; Homo sapiens, JIMT-1, 72 h, JIMT1, breast): > 50 µM
IC50 (cancer cell lines; Homo sapiens, K562, 72 h, K-562, hematological): > 50 µM
IC50 (cancer cell lines; Homo sapiens, Kasumi 1, 72 h, KASUMI-1, hematological): > 50 µM
IC50 (cancer cell lines; Homo sapiens, L-363, 72 h, L-363, hematological): > 50 µM
IC50 (cancer cell lines; Homo sapiens, LoVo, colon): > 50 µM
IC50 (cancer cell lines; Homo sapiens, MCF7, 72 h, MCF7, breast): > 50 µM
IC50 (cancer cell lines; Homo sapiens, MDA-MB-231, 72 h, MDAMB231, breast): 2.85 µM
IC50 (cancer cell lines; Homo sapiens, MDA-MB-435, 72 h, MDAMB435, skin): > 50 µM
IC50 (cancer cell lines; Homo sapiens, MDA-MB-436, 72 h, MDAMB436, breast): > 50 µM
IC50 (cancer cell lines; Homo sapiens, MDA-MB-468, 72 h, MDAMB468, breast): > 50 µM
IC50 (cancer cell lines; Homo sapiens, MG-63, 72 h, MG63, bone): > 50 µM
IC50 (cancer cell lines; Homo sapiens, MHH-ES-1, 72 h, MHHES1, bone): > 50 µM
IC50 (cancer cell lines; Homo sapiens, MIA PaCa-2, 72 h, MIAPACA2, pancreas): > 50 µM
IC50 (cancer cell lines; Homo sapiens, MINO, hematological): 1.3 µM
IC50 (cancer cell lines; Homo sapiens, MV4-11, 72 h, MV4-11, hematological): 4.39 µM
IC50 (cancer cell lines; Homo sapiens, NCI-H23, 72 h, NCI-H23, lung): > 50 µM
IC50 (cancer cell lines; Homo sapiens, NCI-H82, 72 h, NCIH82, lung): > 50 µM
IC50 (cancer cell lines; Homo sapiens, NCI-H292, 72 h, NCIH292, lung): 4.62 µM
IC50 (cancer cell lines; Homo sapiens, NCI-H460, 72 h, NCIH460, ung): 4.01 µM
IC50 (cancer cell lines; Homo sapiens, OVCAR-3, 72 h, OVCAR3, ovary): > 50 µM
IC50 (cancer cell lines; Homo sapiens, OVCAR-4, 72 h, OVCAR4, ovary): > 50 µM
IC50 (cancer cell lines; Homo sapiens, PANC-1, 72 h, PANC1, pancreas): > 50 µM
IC50 (cancer cell lines; Homo sapiens, PLC-PRF-5, 72 h, PLCPRF5, liver): > 50 µM
IC50 (cancer cell lines; Homo sapiens, Panc1005, 72 h, PANC1005, pancreas): > 50 µM
IC50 (cancer cell lines; Homo sapiens, Ramos, hematological): 1.72 µM
IC50 (cancer cell lines; Homo sapiens, SAOS-2, 72 h, SAOS2, bone): > 50 µM
IC50 (cancer cell lines; Homo sapiens, SF-268, 72 h, SF268, brain): > 50 µM
IC50 (cancer cell lines; Homo sapiens, SF-295, 72 h, SF295, brain): > 50 µM
IC50 (cancer cell lines; Homo sapiens, SK-BR-3, 72 h, SKBR3, breast): > 50 µM
IC50 (cancer cell lines; Homo sapiens, SK-HEP1, 72 h, SKHEP1, liver): > 50 µM
IC50 (cancer cell lines; Homo sapiens, SK-LMS-1, 72 h, SKLMS1, uterus): > 50 µM
IC50 (cancer cell lines; Homo sapiens, SK-MEL-5, 72 h, SKMEL5, skin): > 50 µM
IC50 (cancer cell lines; Homo sapiens, SK-MEL-28, 72 h, SKMEL28, skin): > 50 µM
IC50 (cancer cell lines; Homo sapiens, SK-N-AS, SKNAS, brain): > 50 µM
IC50 (cancer cell lines; Homo sapiens, SK-N-SH, SKNSH, brain): > 50 µM
IC50 (cancer cell lines; Homo sapiens, SK-OV-3, 72 h, SKOV3, ovary): > 50 µM
IC50 (cancer cell lines; Homo sapiens, SNB-75, 72 h, SNB75, brain): > 50 µM
IC50 (cancer cell lines; Homo sapiens, SU-DHL10, 72 h, SU-DHL-10, hematological): > 50 µM
IC50 (cancer cell lines; Homo sapiens, SU-DHL-6, 72 h, SU-DHL-6, hematological): 3.8 µM
IC50 (cancer cell lines; Homo sapiens, SW-620, 72 h, SW620, colon): > 50 µM
IC50 (cancer cell lines; Homo sapiens, TE-671, 72 h, TE671, muscle): > 50 µM
IC50 (cancer cell lines; Homo sapiens, THP-1, 72 h, THP-1, hematological): > 50 µM
IC50 (cancer cell lines; Homo sapiens, U2OS, bone): > 50 µM
IC50 (cancer cell lines; Homo sapiens, U-87 MG, U87MG, brain): > 50 µM
IC50 (cancer cell lines; Homo sapiens, UMUC3, 72 h, UMUC3, bladder): > 50 µM
IC50 (cancer cell lines; Homo sapiens, UO-31, 72 h, UO31, kidney): 9.45 µM
IC50 (cancer cell lines; Homo sapiens, WSU-NHL, hematological): 2.82 µM
IC50 (cancer cell lines; NCI-H358M, NCIH358M, lung): 1.49 µM
IC50 (cancer cell lines; PBMC, hematological): 11.8 µM
IC50 (cancer cell lines; RD-ES, RDES, bone): > 50 µM
SMILES: CC[C@]1(CO)O[C@@H](n2ccc(N)nc2=O)C[C@@H]1O [compound 21, 4-amino-1-((2R,4S,5R)-5-ethyl-4-hydroxy-5-(hydroxymethyl)tetrahydrofuran-2-yl)pyrimidin-2(1H)-one]
